In PubChem BioAssay (NCI):
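1) Cells in 96-well plates. 2) Compound, 48 h, 5 concentrations. 3) Linear interpolation between surrounding doses. 4) Unreached endpoint = highest concentration. TGI: total growth inhibition.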

Key:
Test in all cases: growth of human tumour cells (NCI), 48 h
OVCAR-4 ovarian = tested on: OVCAR-4 ovarian
NCI-H23 lung = tested on: NCI-H23 lung
EKVX NSCLC = tested on: EKVX NSCLC
A498 renal = tested on: A498 renal
HCT-116 colon = tested on: HCT-116 colon
NCI-H460 lung = tested on: NCI-H460 lung
BT-549 breast = tested on: BT-549 breast
SK-MEL-28 melanoma = tested on: SK-MEL-28 melanoma
MALME-3M melanoma = tested on: MALME-3M melanoma
SF-268 CNS = tested on: SF-268 CNS
MOLT-4 leukemia = tested on: MOLT-4 leukemia
OVCAR-3 ovarian = tested on: OVCAR-3 ovarian
T-47D breast = tested on: T-47D breast
RXF 393 renal = tested on: RXF 393 renal
HL-60(TB) leukemia = tested on: HL-60(TB) leukemia
SF-295 CNS = tested on: SF-295 CNS
SF-539 CNS = tested on: SF-539 CNS
LOX IMVI melanoma = tested on: LOX IMVI melanoma
SN12C renal = tested on: SN12C renal
HCT-15 colon = tested on: HCT-15 colon
M14 melanoma = tested on: M14 melanoma
MDA-MB-435 = tested on: MDA-MB-435
MCF7 breast = tested on: MCF7 breast
UO-31 renal = tested on: UO-31 renal
IGROV1 ovarian = tested on: IGROV1 ovarian
COLO 205 colon = tested on: COLO 205 colon
NCI-H226 lung = tested on: NCI-H226 lung
OVCAR-5 ovarian = tested on: OVCAR-5 ovarian
DU-145 prostate = tested on: DU-145 prostate
HOP-62 NSCLC = tested on: HOP-62 NSCLC
ACHN renal = tested on: ACHN renal
SW-620 colon = tested on: SW-620 colon
HT29 colon = tested on: HT29 colon
U251 CNS = tested on: U251 CNS
UACC-257 melanoma = tested on: UACC-257 melanoma
KM12 colon = tested on: KM12 colon
NCI-H522 lung = tested on: NCI-H522 lung
SR leukemia = tested on: SR leukemia
CCRF-CEM leukemia = tested on: CCRF-CEM leukemia
HCC-2998 colon = tested on: HCC-2998 colon
OVCAR-8 ovarian = tested on: OVCAR-8 ovarian
SNB-19 CNS = tested on: SNB-19 CNS
PC-3 prostate = tested on: PC-3 prostate
NCI/ADR-RES ovarian = tested on: NCI/ADR-RES ovarian
K-562 leukemia = tested on: K-562 leukemia
MDA-MB-231 breast = tested on: MDA-MB-231 breast
UACC-62 melanoma = tested on: UACC-62 melanoma
A549 NSCLC = tested on: A549 NSCLC
786-0 renal = tested on: 786-0 renal
HOP-92 NSCLC = tested on: HOP-92 NSCLC
SK-OV-3 ovarian = tested on: SK-OV-3 ovarian
SNB-75 CNS = tested on: SNB-75 CNS
CAKI-1 renal = tested on: CAKI-1 renal
TK-10 renal = tested on: TK-10 renal

Measured: TGI

Cn1c(=O)oc2cc(C(O)CN3CCN(Cc4ccc5c(c4)OCO5)CC3)ccc21 (centres undefined)
> 100 µM: all assays above
